# Measurements reported in US20260166029A1, “METHODS AND SYSTEMS FOR TREATING DISEASE USING AN ATR/CHK1 SIGNALING PATHWAY INHIBITOR” (Acrivon Therapeutics, Inc., priority 2022, published 2026).
# Several values for one entry are separate records, joined by “and”; a condition that tells them apart may be missing. Identical values can stand only once.
# Tests used:
# [1] = test system: head and neck, anal, and ovarian cancer; settings: cited from earlier work
# [2] = test system: metastatic high-grade serous ovarian cancer; experiment: Observed response in phase 2 clinical trials, patients with FFPE pre-treatment biopsies (Example 5); type: in vivo, human; design: key to RECIST response category: SD: stable disease;; PR: partial response;; PD: progressive disease;; settings: for RECIST Responder: RECIST response = PR or CR
# Description: Biopsy samples from several independent clinical phase 2 studies were merged for this analysis based on availability. Study JTJN (NCT03414047) was a large multicenter, multi-country, non-randomized, parallel cohort, Phase 2 study of prexasertib in subjects with advanced stage, high grade serous ovarian, primary peritoneal, or fallopian tube cancer. Several single-center phase 2 studies sponsored by NCI of prexasertib in BRCA ½ wild-type or BRCA ½ mutant recurrent high-grade serous ovarian cancer (NCT02203513) provided additional FFPE samples; see Lee, Lancet Oncol. 19(2): 207-215 (2018). To evaluate whether a provided Response-Predictive Signature can successfully predict patient responders, sections of pre-treatment tumor biopsies were stained blinded to treatment outcome using antibodies against three biomarkers (biomarker 1 (BM1) Ser296 phosphorylated Chk1, biomarker 2 (BM2) Ser473 phosphorylated Kap1, and biomarker 3 (BM3) total cyclin E1) and imaged using immunofluorescence microscopy. The tumor samples were additionally stained using an antibody against cytokeratin in order to identify and distinguish tumor cells of interest from the surrounding stroma and stained with DAPI to identify cell nuclei.
# The Response-Predictive Signature was evaluated by comparing predicted response to prexasertib of each patient to observed response in the clinical trials (Table 8, FIG. 15). Observed clinical trial responses were provided separately to the third party biostatistician. They were classified according to RECIST criteria as complete response (CR), partial response (PR), stable disease (SD), or progressive disease (PD). Additionally, the observed treatment outcome was quantified based on the maximum fractional change in tumor volume after treatment (Table 8, FIG. 15). […] Clinical RECIST responder rate (PR or CR) among those predicted by the Response-Predictive Signature to be non-responders was 5%. Clinical RECIST responder rate (PR or CR) among those predicted by the Response-Predictive Signature to be responders was 58%. This 58% represented a substantial responder-enrichment over the overall unenriched response rate of 25%.
# [3] = test system: PC3; experiment: Cell viability, sensitivity to prexasertib (Example 1); type: cell-based, human; settings: PC3 cell line
# Experimental: (§1) Predicted response to prexasertib was compared to experimentally measured sensitivity to prexasertib. […] EC50 values of less than or equal to 1 μM were considered to be actual responders, while values of greater than 1 μM were considered to be actual non-responders.
# [4] = test system: BT549; experiment: as above; type: cell-based, human; settings: BT549 cell line
# Experimental: as §1
# [5] = test system: A2780; experiment: as above; type: cell-based, human; settings: A2780 cell line
# Experimental: as §1
# [6] = test system: DU145; experiment: as above; type: cell-based, human; settings: DU145 cell line
# Experimental: as §1
# [7] = test system: CAOV3; experiment: as above; type: cell-based, human; settings: CAOV3 cell line
# Experimental: as §1
# [8] = test system: A549; experiment: as above; type: cell-based, human; settings: A549 cell line
# Experimental: as §1
# [9] = test system: MCF7; experiment: as above; type: cell-based, human; settings: MCF7 cell line
# Experimental: as §1
# [10] = test system: U2020; experiment: as above; type: cell-based, human; settings: U2020 cell line
# Experimental: as §1
# [11] = test system: U1752; experiment: as above; type: cell-based, human; settings: U1752 cell line
# Experimental: as §1
# [12] = test system: T47D; experiment: as above; type: cell-based, human; settings: T47D cell line
# Experimental: as §1
# [13] = test system: OVCAR3; experiment: as above; type: cell-based, human; settings: OVCAR3 cell line
# Experimental: as §1
# [14] = test system: Kuramochi; experiment: as above; type: cell-based, human; settings: Kuramochi cell line
# Experimental: as §1
# [15] = test system: Ovarian, primary HGS; settings: trial 2, 46 multi-center, 8-country study; cited from earlier work
# [16] = test system: ST2067 ovarian PDX tumor; experiment: Response to prexasertib treatment in ovarian PDX tumor model (Example 3); type: in vivo; design: key to Response type: CR = complete regression; PR = partial regression; S = stasis; G = growth
# Description: To evaluate whether the provided Response-Predictive Signature can predict response to prexasertib treatment, the predicted response for each PDX model was compared to an experimentally determined response to prexasertib treatment for the same PDX model. The experimentally measured response was quantified as follows: if a treated tumor reduced in size/volume, then the percent regression compared to an initial volume of a treated tumor was provided, if a treated tumor increased in size/volume, then a percent ratio of the treated tumor's growth was divided by control tumor (i.e., untreated tumor) growth (d[T/C]). Negative values for regression percentage indicate response to treatment with prexasertib, while positive values indicate continued growth and non-response to prexasertib treatment. The experimentally measured response was further categorized as complete regression (near −100% regression), partial regression (−50% to −100% regression), stasis (<20% median tumor growth to −50% regression), and growth (>20% median tumor growth).
# [17] = individual patients predicted non-responder (NR)
# [18] = individual patients predicted responder (R)
# [19] = based on measured sensitivity (EC50)
# [20] = Homo sapiens, reduction in cell viability by 50%
structure (smiles),measurement,setting,value
"COc1cccc(OCCCN)c1-c1cc(Nc2cnc(C#N)cn2)n[nH]1 [prexasertib, 5-(5-(2-(3-aminopropoxy)-6-methoxyphenyl)-1H-pyrazol-3-ylamino)pyrazine-2-carbonitrile]",Response rates in clinical trials,"[1]; across cancers, including head and neck, anal, and ovarian cancer, single agent",5-20%
same,Side effects,"[1]; patients, reversible, common, hematological, mechanism-based myelosuppression","neutropenia, thrombocytopenia, and anemia"
same,overall unenriched response rate,[2]; all patients of the FFPE cohort,25%
same,Clinical RECIST responder rate (PR or CR),[2]; among those predicted by the Response-Predictive Signature to be non-responders,5%
same,Clinical RECIST responder rate (PR or CR),[2]; among those predicted by the Response-Predictive Signature to be responders,58%
same,Best Tumor Shrinkage (fraction from baseline),[2]; [17],0.048 and 0.159 and −0.037 and −0.118 (2×) and 0.353 and −0.024 and −0.077 and 0 (2×) and 0.342 and 0.105 and −0.192 and 0.146 and −0.012 and 0.015 and 0.24 and 0.1 and 0.04 and 0.01
same,RECIST response category,[2]; [17],SD (16×) and PD (3×) and PR
same,RECIST Responder,[2]; [17],FALSE (19×) and TRUE
same,Best Tumor Shrinkage (fraction from baseline),[2]; [18],0.146 and 0 and 0.441 and 0.52 and 0.584 and −0.287 and 0.038 and 0.492 and 0.59 and 0.35 and 0.14 and 0.444
same,RECIST response category,[2]; [18],SD (4×) and PR (7×) and PD
same,RECIST Responder,[2]; [18],FALSE (5×) and TRUE (7×)
same,EC50,"[3]; Homo sapiens, PC-3, reduction in cell viability by 50%",> 10 µM
same,Actual response status,[3]; [19],NR (values of greater than 1 μM were considered to be actual non-responders)
same,Actual response status,[4]; [19],R (EC50 values of less than or equal to 1 μM were considered to be actual responders)
same,EC50,"[4]; Homo sapiens, BT-549, reduction in cell viability by 50%",0.021 µM
same,Actual response status,[5]; [19],NR (values of greater than 1 μM were considered to be actual non-responders)
same,EC50,[5]; [20],> 10 µM
same,Actual response status,[6]; [19],NR (values of greater than 1 μM were considered to be actual non-responders)
same,EC50,"[6]; Homo sapiens, DU-145, reduction in cell viability by 50%",> 10 µM
same,Actual response status,[7]; [19],R (EC50 values of less than or equal to 1 μM were considered to be actual responders)
same,EC50,"[7]; Homo sapiens, Caov-3, reduction in cell viability by 50%",0.017 µM
same,Actual response status,[8]; [19],NR (values of greater than 1 μM were considered to be actual non-responders)
same,EC50,[8]; [20],> 10 µM
same,EC50,[9]; [20],> 10 µM
same,Actual response status,[9]; [19],NR (values of greater than 1 μM were considered to be actual non-responders)
same,EC50,[10]; [20],0.007 µM
same,Actual response status,[10]; [19],R (EC50 values of less than or equal to 1 μM were considered to be actual responders)
same,EC50,[11]; [20],> 10 µM
same,Actual response status,[11]; [19],NR (values of greater than 1 μM were considered to be actual non-responders)
same,EC50,[12]; [20],> 10 µM
same,Actual response status,[12]; [19],NR (values of greater than 1 μM were considered to be actual non-responders)
same,EC50,"[13]; Homo sapiens, OVCAR-3, reduction in cell viability by 50%",0.019 µM
same,Actual response status,[13]; [19],R (EC50 values of less than or equal to 1 μM were considered to be actual responders)
same,EC50,[14]; [20],0.024 µM
same,Actual response status,[14]; [19],R (EC50 values of less than or equal to 1 μM were considered to be actual responders)
same,ORR in trials,[15],19% (trial 2^)
same,Response type,[16],CR
same,"Best d[T/C], or Regression",[16]; negative = regression,−100%
